In patent US20110195845A1, “Constructs for Expressing Herbicide Tolerance Genes, Related Plants, and Related Trait Combinations” (Dow AgroSciences LLC, priority 2008, published 2011):

Key:
[1] = system: PAT gene + AAD-12 transformed T1 Arabidopsis; experiment: T1 Arabidopsis response to glufosinate applied postemergence; type: in vivo, Arabidopsis thaliana; settings: 2 WAT
Procedure: (§1) Seven days after planting (DAP) and again 11 DAP, T1 plants (cotyledon and 2-4-1f stage, respectively) were sprayed with a 0.016% solution of 2,4-D herbicide (456 g ae/L 2,4-D Amine 4, Dow AgroSciences LLC, Indianapolis, Ind.) at a spray volume of 10 ml/tray (703 L/ha) using a DeVilbiss compressed air spray tip to deliver an effective rate of 50 g ae/ha 2,4-D DMA per application. Survivors (plants actively growing) were identified 4-7 days after the final spraying and transplanted individually into 3-inch pots prepared with potting media (Metro Mix 360). Transplanted plants were covered with humidity domes for 3-4 days and placed in a 22° C. growth chamber as before or moved to directly to the greenhouse. Domes were subsequently removed and plants reared in the greenhouse (22±5° C., 50±30% RH, 14 h light:10 dark, minimum 500 μE/m^2s^1 natural+supplemental light) at least 1 day prior to testing for the ability of DSM-2 (v2) to provide glufosinate herbicide resistance.
(§2) T1 plants were then randomly assigned to various rates of glufosinate. For Arabidopsis 140 g ai/ha glufosinate is an effective dose to distinguish sensitive plants from ones with meaningful levels of resistance. Elevated rates were also applied to determine relative levels of resistance (280, 560, or 1120 g ai/ha).
(§3) All glufosinate herbicide applications were applied by track sprayer in a 187 L/ha spray volume. The commercial Liberty™ formulation (200 g ai/L, Bayer Crop Science, Research Triangle Park, N.C.).
(§4) The first Arabidopsis transformations were conducted using DSM-2 (v2) (plant optimized gene). T1 transformants were first selected from the background of untransformed seed using a 2,4-D DMA selection scheme. Over 100,000 T1 seed were screened and 260 2,4-D resistant plants (AAD-12 gene) were identified, equating to a transformation/selection frequency of 0.26% which is slightly higher than the normal range of selection frequency of constructs where AAD-12+2,4-D are used for selection. T1 plants selected above were subsequently transplanted to individual pots and sprayed with various rates of commercial glufosinate herbicide. Table 10 compares the response of DSM-2 (v2) and control genes to impart glufosinate resistance to Arabidopsis T1 transformants. Response is presented in terms of % visual injury 2 WAT. […] Since each T1 is an independent transformation event, one can expect significant variation of individual T1 responses within a given rate. An arithmetic mean and standard deviation is presented for each treatment. Untransformed-wildtype Arabidopsis served as a glufosinate sensitive control. The DSM-2 (v2) gene imparted herbicide resistance to individual T1 Arabidopsis plants. Within a given treatment, the level of plant response varied greatly and can be attributed to the fact each plant represents an independent transformation event. Of important note, at above 140 g ai/ha glufosinate, there were individuals that were unaffected while some were severely affected.

[2] = system: DSM-2 (v2) gene + AAD-12 transformed T1 Arabidopsis; experiment: as above; type: in vivo, Arabidopsis thaliana; settings: for % Injury Ave / individuals with % Injury 20-40% / individuals with % Injury <20% / individuals with % Injury >40%: 2 WAT
Procedure: as §1, §2, §3, §4

Wildtype corn = experiment: Leaf paint with glufosinate in corn; type: in vivo; settings: for % Injury: 2 WAT
Procedure: T0 DSM-2 (v2) plants were painted with a rundown of glufosinate herbicide. Four siblings from each of 15 T0 events were tested, and 4 leaves on each individual plant received a rundown of glufosinate at approximately V8 stage. Rundown treatments were randomized for each rate allowing for variation of treatment location on individual leaves. For corn, 0.25% v/v glufosinate is the minimum effective dose to distinguish sensitive plants from ones with meaningful levels of resistance. Elevated rates were also applied to determine relative levels of resistance (0.5%, 1.0%, and 2.0% v/v). Glufosinate treatments were applied using cotton tipped applicators to a treatment area of approximately 2.5 cm in diameter.
Table 11 compares the response of DSM-2 (v2) and control genes to impart glufosinate resistance to corn T0 transformants. Response is presented in terms of % visual injury 2 WAT. […] Since each T0 is an independent transformation event, one can expect significant variation of individual T0 responses within a given rate. An arithmetic mean and standard deviation is presented for each treatment. Untransformed wildtype corn served as a glufosinate sensitive control. The DSM-2 (v2) gene imparted herbicide resistance to individual T0 corn plants. Within a given treatment, the level of plant response varied greatly and can be attributed to the fact each plant represents an independent transformation event.

[3] = system: Escherichia coli BL21-Star (DE3) with CsVMV promoter//DSM-2 (3264); experiment: Viral promoter driven complementation on glufosinate, plasmid 3264; type: cell-based; settings: for bacterial growth on minimal media: 48 hrs @37 C; for bacterial growth on minimal media: key: ++++ = Heavy Lawn Growth; +++ = Lawn Growth; ++ = Lots of Distinct Colonies; + = Scattered Colony Growth
Procedure: Plasmid constructs in which the DSM-2 (v2) and PAT gene coding sequences were expressed, under either the viral promoters CsVMV or the plant promoter AtUbi10, were assayed for complementation on minimal media containing glufosinate. The plasmids 3778 (Rb7 MARv3//AtUbi10 promoter//DSM-2 (v2)//Atu Orf 1 3′UTR), 3779 (Rb7 MARv3//AtUbi10 promoter//PAT//Atu Orf 1 3′UTR), 3264 (CsVMV promoter//DSM-2//Atu Orf 24 3′UTR), 3037 (CsVMV promoter//PAT//Atu Orf 25/26 3′UTR), and 770 (control plasmid containing CsVMV promoter//GUS v3//Atu Orf 24 3′UTR) were transformed into Escherichia coli BL21-Star (DE3) and grown up in complex media. Five microliters of the cultures were plated on minimal media containing increasing concentrations of Glufosinate and incubated at 37° C. for 48 hours.

[4] = 140 g ai/ha glufosinate postemergence
[5] = 280 g ai/ha glufosinate postemergence
[6] = 560 g ai/ha glufosinate postemergence
[7] = 1120 g ai/ha glufosinate postemergence

CP(=O)(O)CCC(N)C(=O)O (centres unmarked) [glufosinate]
% Injury Ave [1, 4]: 0.0% | individuals with % Injury 20-40% [1, 4]: 0 | individuals with % Injury <20% [1, 4]: 10 | individuals with % Injury >40% [1, 4]: 0 | % Injury Ave [1, 5]: 0.0% | individuals with % Injury 20-40% [1, 5]: 0 | individuals with % Injury <20% [1, 5]: 10 | individuals with % Injury >40% [1, 5]: 0 | % Injury Ave [1, 6]: 0.0% | individuals with % Injury 20-40% [1, 6]: 0 | individuals with % Injury <20% [1, 6]: 10 | individuals with % Injury >40% [1, 6]: 0 | % Injury Ave [1, 7]: 3.0% | individuals with % Injury 20-40% [1, 7]: 0 | individuals with % Injury <20% [1, 7]: 10 | individuals with % Injury >40% [1, 7]: 0 | % Injury Ave [2, 4]: 0.0% | individuals with % Injury 20-40% [2, 4]: 0 | individuals with % Injury <20% [2, 4]: 20 | individuals with % Injury >40% [2, 4]: 0 | % Injury Ave [2, 5]: 3.0% | individuals with % Injury 20-40% [2, 5]: 1 | individuals with % Injury <20% [2, 5]: 19 | individuals with % Injury >40% [2, 5]: 0 | % Injury Ave [2, 6]: 6.0% | individuals with % Injury 20-40% [2, 6]: 0 | individuals with % Injury <20% [2, 6]: 19 | individuals with % Injury >40% [2, 6]: 1 | % Injury Ave [2, 7]: 13.0% | individuals with % Injury 20-40% [2, 7]: 1 | individuals with % Injury <20% [2, 7]: 17 | individuals with % Injury >40% [2, 7]: 2 | injury of surviving individuals ([2]; 1,120 g ai/ha glufosinate, many individuals): little or no injury | % Injury (Wildtype corn; 0.25% v/v glufosinate leaf paint): 33% | % Injury (Wildtype corn; 0.5% v/v glufosinate leaf paint): 50% | % Injury (Wildtype corn; 1% v/v glufosinate leaf paint): 84% | % Injury (Wildtype corn; 2% v/v glufosinate leaf paint): 90% | minimum effective dose to distinguish sensitive plants from ones with meaningful levels of resistance (Wildtype corn; corn, leaf paint): 0.25 % v/v | bacterial growth on minimal media ([3]; 250 μg/ml BASTA): ++ | bacterial growth on minimal media ([3]; 500 μg/ml BASTA): + | concentration in minimal media to which promoter-driven DSM-2 provided resistance ([3]; CsVMV promoter, minimal media): 200 µg/mL
